Literature values as cited in patent publication EP1048712A1, “A process of treating fabrics with a laundry detergent additive tablet” (THE PROCTER & GAMBLE COMPANY, priority 1999, dated 2000).

Conditions: 25°C

Molecule: N#CS [NCS-]
- base hydrolysis rates (kOH): 0.0005 M⁻¹ s⁻¹

Molecule: CC(=O)O [acetate]
- base hydrolysis rates (kOH): 0.00096 M⁻¹ s⁻¹

Molecule: O=CO [formate]
- base hydrolysis rates (kOH): 0.00058 M⁻¹ s⁻¹

Molecule: oxalate
- base hydrolysis rates (kOH): 0.00025 M⁻¹ s⁻¹
